Entries after “also recorded” stand apart in the source; their conditions may differ. Where a SMILES comes first, the peptide text is derived from it.
Columns and labels:
Sprague-Dawley rats = conditions: rat, in vivo
[1] = molecular target: recombinant Cav1.2 α1C (L-type) channels (α/α2δ1/β3) (Oryctolagus cuniculus, UniProt P15381); format: cell-based, rabbit
[2] = molecular target: recombinant N-type (Cav2.2) VGCCs α1B-b/α2δ1/β3 (Rattus norvegicus, UniProt Q02294); test: cell-based; format: cell-based
Sequence of recombinant N-type (Cav2.2) VGCCs α1B-b/α2δ1/β3 (Q02294 whole entry, looked up): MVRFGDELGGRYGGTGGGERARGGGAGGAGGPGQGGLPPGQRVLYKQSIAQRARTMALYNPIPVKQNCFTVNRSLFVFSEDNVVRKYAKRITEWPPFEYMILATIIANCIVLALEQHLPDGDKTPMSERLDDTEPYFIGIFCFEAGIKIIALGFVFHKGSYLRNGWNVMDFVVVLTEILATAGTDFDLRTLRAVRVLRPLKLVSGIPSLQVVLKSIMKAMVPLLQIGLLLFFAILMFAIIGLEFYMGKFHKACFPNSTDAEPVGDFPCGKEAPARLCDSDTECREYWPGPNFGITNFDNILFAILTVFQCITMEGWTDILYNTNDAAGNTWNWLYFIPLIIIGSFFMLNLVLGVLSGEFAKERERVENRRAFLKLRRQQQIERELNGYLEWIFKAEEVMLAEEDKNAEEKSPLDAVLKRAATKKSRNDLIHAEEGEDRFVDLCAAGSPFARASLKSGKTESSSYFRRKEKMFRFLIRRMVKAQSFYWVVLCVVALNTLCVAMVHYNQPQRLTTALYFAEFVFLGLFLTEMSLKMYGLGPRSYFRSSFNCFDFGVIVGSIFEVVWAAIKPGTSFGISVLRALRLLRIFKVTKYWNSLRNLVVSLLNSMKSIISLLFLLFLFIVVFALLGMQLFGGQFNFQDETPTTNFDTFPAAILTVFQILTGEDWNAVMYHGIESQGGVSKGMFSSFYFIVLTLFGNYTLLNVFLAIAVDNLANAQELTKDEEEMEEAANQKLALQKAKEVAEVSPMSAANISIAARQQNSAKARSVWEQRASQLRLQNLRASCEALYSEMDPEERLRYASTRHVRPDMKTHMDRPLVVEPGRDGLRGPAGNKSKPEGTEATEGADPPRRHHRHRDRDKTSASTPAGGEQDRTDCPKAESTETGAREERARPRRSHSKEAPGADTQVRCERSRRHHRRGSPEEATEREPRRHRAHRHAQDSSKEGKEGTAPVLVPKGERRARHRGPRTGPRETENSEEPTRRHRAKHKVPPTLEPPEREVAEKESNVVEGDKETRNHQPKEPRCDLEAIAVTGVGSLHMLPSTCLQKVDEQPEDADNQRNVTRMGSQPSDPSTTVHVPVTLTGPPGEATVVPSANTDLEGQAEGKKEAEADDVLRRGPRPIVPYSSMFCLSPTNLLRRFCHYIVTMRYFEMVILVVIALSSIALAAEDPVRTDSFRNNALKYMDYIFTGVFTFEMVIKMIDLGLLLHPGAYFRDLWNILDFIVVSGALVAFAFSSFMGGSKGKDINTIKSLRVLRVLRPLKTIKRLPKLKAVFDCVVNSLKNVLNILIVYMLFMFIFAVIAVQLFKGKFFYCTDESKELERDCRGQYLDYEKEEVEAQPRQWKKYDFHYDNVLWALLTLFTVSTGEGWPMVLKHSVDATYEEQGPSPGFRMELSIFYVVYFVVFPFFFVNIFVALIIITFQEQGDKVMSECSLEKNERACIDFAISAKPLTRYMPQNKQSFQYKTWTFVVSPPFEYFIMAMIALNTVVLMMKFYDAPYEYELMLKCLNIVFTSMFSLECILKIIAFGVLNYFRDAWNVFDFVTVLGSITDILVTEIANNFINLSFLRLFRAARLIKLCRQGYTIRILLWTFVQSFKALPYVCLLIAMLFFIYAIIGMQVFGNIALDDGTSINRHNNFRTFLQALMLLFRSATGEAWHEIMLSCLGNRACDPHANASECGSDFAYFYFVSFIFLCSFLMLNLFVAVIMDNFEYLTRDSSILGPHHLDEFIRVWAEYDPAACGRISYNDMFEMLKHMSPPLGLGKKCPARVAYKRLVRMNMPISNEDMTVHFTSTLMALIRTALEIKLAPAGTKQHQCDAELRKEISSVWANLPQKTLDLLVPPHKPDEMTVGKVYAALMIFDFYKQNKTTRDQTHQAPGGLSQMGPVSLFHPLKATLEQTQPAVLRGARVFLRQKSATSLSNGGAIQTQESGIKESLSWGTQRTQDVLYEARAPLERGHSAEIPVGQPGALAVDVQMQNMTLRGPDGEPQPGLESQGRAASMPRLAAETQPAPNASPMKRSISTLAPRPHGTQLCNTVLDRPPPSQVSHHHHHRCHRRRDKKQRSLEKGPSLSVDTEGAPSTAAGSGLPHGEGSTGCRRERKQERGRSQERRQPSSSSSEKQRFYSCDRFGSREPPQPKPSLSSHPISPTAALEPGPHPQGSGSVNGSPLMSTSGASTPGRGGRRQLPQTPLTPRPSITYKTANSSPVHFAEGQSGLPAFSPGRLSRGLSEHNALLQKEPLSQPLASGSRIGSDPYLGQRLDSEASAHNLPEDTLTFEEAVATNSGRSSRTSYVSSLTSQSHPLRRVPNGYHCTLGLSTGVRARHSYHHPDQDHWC

[3] = molecular target: recombinant Cav1.3 α1D (L-type) channels (α/α2δ1/β3) (Rattus norvegicus, UniProt P27732); format: cell-based
Sequence of recombinant Cav1.3 α1D (L-type) channels (α/α2δ1/β3) (P27732 whole entry, looked up): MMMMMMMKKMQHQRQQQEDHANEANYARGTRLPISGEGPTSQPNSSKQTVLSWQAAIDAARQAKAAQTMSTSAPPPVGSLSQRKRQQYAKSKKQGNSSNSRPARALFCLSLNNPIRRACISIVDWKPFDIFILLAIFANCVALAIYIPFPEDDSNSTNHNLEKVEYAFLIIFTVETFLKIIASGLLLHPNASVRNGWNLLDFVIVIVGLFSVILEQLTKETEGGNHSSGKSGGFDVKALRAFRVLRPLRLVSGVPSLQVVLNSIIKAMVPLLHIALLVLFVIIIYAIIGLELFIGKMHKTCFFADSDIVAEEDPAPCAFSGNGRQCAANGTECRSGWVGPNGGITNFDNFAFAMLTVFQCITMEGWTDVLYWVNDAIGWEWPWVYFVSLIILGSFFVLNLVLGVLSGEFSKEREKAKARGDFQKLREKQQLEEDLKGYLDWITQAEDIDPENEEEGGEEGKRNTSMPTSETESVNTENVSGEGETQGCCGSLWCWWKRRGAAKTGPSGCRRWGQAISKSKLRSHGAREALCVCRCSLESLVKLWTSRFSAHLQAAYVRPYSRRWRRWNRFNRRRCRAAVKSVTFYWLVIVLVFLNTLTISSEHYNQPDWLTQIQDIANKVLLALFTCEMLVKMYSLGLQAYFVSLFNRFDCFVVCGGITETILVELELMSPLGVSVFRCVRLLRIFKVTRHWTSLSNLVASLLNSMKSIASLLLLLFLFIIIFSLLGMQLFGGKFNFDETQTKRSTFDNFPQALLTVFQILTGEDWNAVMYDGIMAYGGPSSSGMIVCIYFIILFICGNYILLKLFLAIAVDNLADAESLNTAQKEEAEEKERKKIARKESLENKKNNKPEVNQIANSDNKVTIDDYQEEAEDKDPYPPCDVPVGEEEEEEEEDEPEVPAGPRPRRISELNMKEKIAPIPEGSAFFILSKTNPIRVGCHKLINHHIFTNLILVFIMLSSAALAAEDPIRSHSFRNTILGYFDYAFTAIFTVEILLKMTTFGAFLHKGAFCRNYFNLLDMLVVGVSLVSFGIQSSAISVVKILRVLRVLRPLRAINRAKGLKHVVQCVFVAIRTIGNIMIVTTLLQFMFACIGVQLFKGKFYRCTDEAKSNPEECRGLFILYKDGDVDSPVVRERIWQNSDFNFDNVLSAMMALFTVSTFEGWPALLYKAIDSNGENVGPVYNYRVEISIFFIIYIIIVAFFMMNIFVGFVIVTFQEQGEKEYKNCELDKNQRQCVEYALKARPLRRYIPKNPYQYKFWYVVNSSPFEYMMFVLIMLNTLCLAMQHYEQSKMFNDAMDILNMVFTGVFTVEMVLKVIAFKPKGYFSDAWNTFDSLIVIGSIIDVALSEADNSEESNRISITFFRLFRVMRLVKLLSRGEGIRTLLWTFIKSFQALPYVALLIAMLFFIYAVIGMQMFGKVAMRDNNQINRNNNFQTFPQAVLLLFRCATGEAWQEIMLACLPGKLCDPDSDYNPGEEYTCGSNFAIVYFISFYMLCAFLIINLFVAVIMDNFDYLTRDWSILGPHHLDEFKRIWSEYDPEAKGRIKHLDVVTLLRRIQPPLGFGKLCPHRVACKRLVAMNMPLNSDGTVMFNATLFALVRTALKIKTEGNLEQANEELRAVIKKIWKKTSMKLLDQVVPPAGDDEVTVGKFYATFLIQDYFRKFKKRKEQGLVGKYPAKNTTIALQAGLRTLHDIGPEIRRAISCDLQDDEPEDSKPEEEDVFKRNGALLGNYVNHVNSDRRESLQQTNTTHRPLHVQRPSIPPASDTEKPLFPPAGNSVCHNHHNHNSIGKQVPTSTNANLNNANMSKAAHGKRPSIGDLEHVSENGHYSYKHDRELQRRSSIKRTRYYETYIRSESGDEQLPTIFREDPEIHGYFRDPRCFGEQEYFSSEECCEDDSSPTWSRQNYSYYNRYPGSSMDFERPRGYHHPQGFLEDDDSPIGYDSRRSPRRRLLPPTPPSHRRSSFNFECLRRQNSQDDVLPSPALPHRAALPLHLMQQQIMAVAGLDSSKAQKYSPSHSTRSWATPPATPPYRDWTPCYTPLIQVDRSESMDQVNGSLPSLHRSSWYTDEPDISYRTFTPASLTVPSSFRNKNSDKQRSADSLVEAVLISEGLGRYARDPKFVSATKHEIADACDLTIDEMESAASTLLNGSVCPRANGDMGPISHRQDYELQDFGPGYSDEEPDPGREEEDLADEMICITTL

[4] = system: mice with CFA-induced mechanical allodynia; conditions: mouse, in vivo, sc
[5] = molecular target: recombinant Cav2.3 α1E (R-type) channels (α/α2δ1/β3) (Rattus norvegicus, UniProt Q07652); format: cell-based
[6] = system: nerve injury model of neuropathic pain; conditions: rat, in vivo
[7] = molecular target: recombinant Cav2.1 α1A (P/Q-type) channels (α/α2δ1/β3) (Oryctolagus cuniculus, UniProt P27884); test: cell-based; design: species or system rabbit
[8] = molecular target: recombinant N-type (Cav2.2) VGCCs α1B-b/α2δ1/β2a (Rattus norvegicus, UniProt Q02294); format: cell-based
Sequence of recombinant N-type (Cav2.2) VGCCs α1B-b/α2δ1/β2a (Q02294 whole entry, looked up): as the sequence (Q02294 whole entry, looked up) above

[9] = system: native VGCCs in DRG sensory neurons; format: cell-based, rat; conditions: for maximum inhibition of inward Ba2+ current: 0.1 µM
[10] = system: excitatory synaptic transmission between primary afferents and dorsal horn superficial lamina neurons; format: cell-based, rat
N-type VGCCs = N-type VGCCs (Rattus norvegicus, UniProt Q02294); test: biochemical; format: binding
Sequence of N-type VGCCs (Q02294 whole entry, looked up): as above

[11] = system: low-voltage-activated T-type VGCC in DRG neurons; format: cell-based, rat

Compound	side effects (shakes, tail twitching, serpentine tail movements) (Sprague-Dawley rats)	effect on Cav1.2 channels [1]	Hill slope [2]	effect on Cav1.3 channels [3]	reversal of incapacitance [4]	effect on Cav2.3 channels [5]	relief of mechanical allodynia [6]	effect on Cav2.1 channels [7]	Hill slope [8]	maximum inhibition of inward Ba2+ current [9] [%]	EPSC amplitude recovered after washout [10]	reduction of evoked monosynaptic EPSC amplitude [10] [%]	displacement of 125I-GVIA binding (N-type VGCCs)	IC50 (N-type VGCCs; affinity) [nM]	IC50 (N-type VGCCs; pIC50) [nM]	effect on T-type current [11]	effect on P/Q- and L-type VGCC current components [9]
CC(C)C[C@@H]1NC(=O)[C@H](CCCNC(=N)N)NC(=O)[C@@H]2CSSC[C@@H]3NC(=O)[C@H](CO)NC(=O)[C@H](C)NC(=O)CNC(=O)[C@H](CCCCN)NC(=O)CNC(=O)[C@H](CCCCN)NC(=O)[C@@H](N)CSSC[C@H](NC(=O)[C@H](CSSC[C@@H](C(N)=O)NC(=O)[C@H](CCCNC(=N)N)NC(=O)CNC1=O)NC(=O)[C@H](CC(=O)O)NC(=O)[C@H](Cc1ccc(O)cc1)NC(=O)[C@H](CO)NC(=O)[C@H]([C@@H](C)O)NC(=O)[C@H](CCCCN)NC(=O)[C@H](CCCNC(=N)N)NC3=O)C(=O)N[C@@H]([C@@H](C)O)C(=O)NCC(=O)N[C@@H](CO)C(=O)N2 [[R10K]CVIF] (HELM PEPTIDE1{C.K.G.K.G.A.S.C.R.K.T.S.Y.D.C.C.T.G.S.C.R.L.G.R.C.[am]}$PEPTIDE1,PEPTIDE1,1:R3-16:R3|PEPTIDE1,PEPTIDE1,8:R3-20:R3|PEPTIDE1,PEPTIDE1,15:R3-25:R3$$$V2.0)	substantially decreased side effects compared to CVID	neither [R10K]CVIE or [R10K]CVIF had any effect	0.65±0.04	neither [R10K]CVIE or [R10K]CVIF had any effect	highly significant reversal of incapacitance; also recorded: sustained	neither [R10K]CVIE or [R10K]CVIF had any effect	relieved mechanical allodynia	neither [R10K]CVIE or [R10K]CVIF had any effect	0.86±0.04								
C[C@@H]1NC(=O)CNC(=O)[C@H](CCCCN)NC(=O)CNC(=O)[C@H](CCCCN)NC(=O)[C@@H](N)CSSC[C@@H]2NC(=O)[C@@H]3CSSC[C@@H](C(N)=O)NC(=O)[C@H](CCCNC(=N)N)NC(=O)CNC(=O)[C@H](CO)NC(=O)[C@H](CCCNC(=N)N)NC(=O)[C@H](CSSC[C@H](NC(=O)[C@H](CO)NC1=O)C(=O)N[C@@H](CCCNC(=N)N)C(=O)N[C@@H](CCCNC(=N)N)C(=O)N[C@@H]([C@@H](C)O)C(=O)N[C@@H](CO)C(=O)N[C@@H](Cc1ccc(O)cc1)C(=O)N[C@@H](CC(=O)O)C(=O)N3)NC(=O)[C@H](CO)NC(=O)CNC(=O)[C@H]([C@@H](C)O)NC2=O [CVIE, CKGKGASCRRTSYDCCTGSCRSGRC]	substantially decreased side effects compared to CVID				highly significant reversal of incapacitance; also recorded: subsided		completely relieves mechanical allodynia; also recorded: relieved mechanical allodynia			~50	78±7 % of control	67±5	fully displaced	0.037	0.02		
CC(C)C[C@@H]1NC(=O)[C@H](CCCNC(=N)N)NC(=O)[C@@H]2CSSC[C@@H]3NC(=O)[C@H](CO)NC(=O)[C@H](C)NC(=O)CNC(=O)[C@H](CCCCN)NC(=O)CNC(=O)[C@H](CCCCN)NC(=O)[C@@H](N)CSSC[C@H](NC(=O)[C@H](CSSC[C@@H](C(N)=O)NC(=O)[C@H](CCCNC(=N)N)NC(=O)CNC1=O)NC(=O)[C@H](CC(=O)O)NC(=O)[C@H](Cc1ccc(O)cc1)NC(=O)[C@H](CO)NC(=O)[C@H]([C@@H](C)O)NC(=O)[C@H](CCCNC(=N)N)NC(=O)[C@H](CCCNC(=N)N)NC3=O)C(=O)N[C@@H]([C@@H](C)O)C(=O)NCC(=O)N[C@@H](CO)C(=O)N2 [CVIF] (HELM PEPTIDE1{C.K.G.K.G.A.S.C.R.R.T.S.Y.D.C.C.T.G.S.C.R.L.G.R.C.[am]}$PEPTIDE1,PEPTIDE1,1:R3-16:R3|PEPTIDE1,PEPTIDE1,8:R3-20:R3|PEPTIDE1,PEPTIDE1,15:R3-25:R3$$$V2.0)	substantially decreased side effects compared to CVID				significant reversal of incapacitance; also recorded: subsided		completely relieves mechanical allodynia; also recorded: relieved mechanical allodynia			~50	73±10 % of control	61±7	fully displaced			not affected	does not affect
C[C@@H](O)[C@@H]1NC(=O)[C@H](Cc2ccc(O)cc2)NC(=O)[C@@H]2C[C@@H](O)CN2C(=O)[C@H](CC(N)=O)NC(=O)[C@@H]2CSSC[C@@H]3NC(=O)[C@H](CO)NC(=O)[C@H](CO)NC(=O)CNC(=O)[C@@H]4C[C@@H](O)CN4C(=O)[C@H](CO)NC(=O)[C@H](CCCCN)NC(=O)[C@@H](N)CSSC[C@H](NC(=O)[C@H](CSSC[C@@H](C(=O)N[C@@H](Cc4ccc(O)cc4)C(N)=O)NC(=O)[C@H](CCCN=C(N)N)NC(=O)[C@H](CCCCN)NC1=O)NC(=O)[C@H](CC(N)=O)NC(=O)[C@H](Cc1ccc(O)cc1)NC(=O)[C@H](CO)NC(=O)[C@H]([C@@H](C)O)NC(=O)[C@@H]1C[C@@H](O)CN1C(=O)[C@H](CO)NC3=O)C(=O)N[C@@H](CCCN=C(N)N)C(=O)N[C@@H](CO)C(=O)N2 [GVIA, reference compound]														0.024	0.0251		

Source: patent US8765677B2 (priority 2009, dated 2014)
